# Measurements as given in patent US20240285497A1, “METHOD FOR EVALUATING AN ABILITY OF A TEST SAMPLE TO TRIGGER A FOREIGN BODY REACTION IN THE SKIN, A METHOD FOR SCREENING A SUBSTANCE HAVING AN ABILITY TO INHIBIT A FOREIGN BODY REACTION IN THE SKIN, AND AN AGENT FOR INHIBITING A FOREIGN BODY REACTION IN THE SKIN” (priority 2021, published 2024).
# Marks after values point to notes of the source that are not given here.
# Key:
# [1] = system: xenobiotic responsive element (XRE); assay: Evaluation of ability to trigger a foreign body reaction using XRE-NLuc::HaCaT reporter cells (NLuc luminescence per viable cell); format: cell-based, human; details: XRE-NLuc::HaCaT cells; for EC50: reporter protein expression; for Present Experiment Maximum Effective concentration Max. Induction: concentration at which reporter expression was maximized
# Description: First, XRE-NLuc::HaCaT cells were suspended in a DMEM medium at the density of 1×10^5 cell/mL, and 100 μL of the thus obtained suspension was added to each well of white 96 well plates (Thermo Fisher Scientific, MA, U.S.A.; Catalogue No.: 136102) so that the number of the cells in each well was 10,000 cells/well. In accordance with a conventional method, the cells were incubated at 37° C., 5% CO2 for 24 hours. Thereafter, the DMEM medium was removed, and 100 μL of a new DMEM medium containing FICZ (6-Formylindolo[3,2-b]carbazole; CAS RN: 172922-91-7) as a test sample at a predetermined concentration was added, followed by further incubation for 24 hours at 37° C., 5% CO2. FICZ is known as a substance that triggers a foreign body reaction in which XRE is involved. Meanwhile, negative controls were prepared by adding 100 μL of a DMEM medium containing no FICZ instead of the DMEM medium containing FICZ, which were also incubated for 24 hours at 37° C., 5% CO2.
# (§1) After the above-described incubation for 24 hours, the number of cells in each well was counted by a colorimetric method based on the degradation of tetrazolium salt (WST-1) by mitochondrial dehydrogenase in viable cells. Specifically, 3 μL of Premix WST-1 (Product Name “Premix WST-1 Cell Proliferation Assay System”; Takara Bio Inc., Shiga, Japan; Catalogue No.: MK400) was added to each well of 96 well plates, and then the cells were cultured for 1 hour at 37° C., 5% CO2. Thereafter, 93 μL of cell culture supernatant was removed from each well to measure the absorbance of the supernatant in each well. The removed supernatants were transferred to transparent 96 well plates, and then the absorbance at 450 nm (A450) and, as a reference wavelength, the absorbance at 670 nm (A670) were measured using iMark microplate reader (Bio-Rad; Catalogue No.: 168-1130JA). A value (A450-A670) was obtained by subtracting the absorbance at 670 nm (A670) from the absorbance at 450 nm (A450). The relative viable cell count (%) was expressed as a relative value with the value (A450-A670) obtained for the negative control as 100%.
# Meanwhile, the expression level of the reporter protein was measured using samples left on the white 96-well plates after removing the supernatants for the viable cell count measurement. Briefly, 7 μL of Nano-Glo Luciferase Assay System (Promega; Catalogue No.: N110) was added to each well of the white 96-well plate. After 3 mins, the luminescence intensity obtained from the reporter protein produced by XRE-NLuc::HaCaT cells in each well was measured using GloMax Navigator Microplate Luminometer (Promega; Catalogue No.: GM2000). The obtained luminescence intensities were divided by the relative viable cell counts obtained by the above-described colorimetric method to obtain the expression level of the reporter protein (luminescence intensity) per unit number of viable cells.
# In FIG. 3, the luminescence intensity per unit number of viable cells obtained from XRE-NLuc::HaCaT cells incubated with each of the DMEM medium containing FICZ at different concentrations was shown as a relative value, with the luminescence intensity per unit number of viable cells obtained for the negative control set to 1. […] In the figure, “*” and “**” indicate statistically significant differences (p<0.05 and p<0.01, respectively) from the negative control (“FICZ Concentration 0 nM” in FIG. 3).
# (§2) The ability of each test sample to trigger a foreign body reaction was evaluated using XRE-NLuc::HaCaT cells in the same manner as in Experiment 1-2, except that I3C (Indole-3-carbinol, CAS RN: 700-06-1), ITE (2-(1′H-indole-3′-carbonyl)-thiazole-4-carboxylic acid methyl ester, CAS RN: 448906-42-1), and Indirubin (CAS RN: 479-41-4) were used instead of FICZ as test samples and the amount of each test sample added to the DMEM medium was appropriately changed.
# XRE-NLuc::HaCaT cells = assay: in vitro; details: read-out: LC50; XRE-NLuc::HaCaT cells, median lethal concentration
# Description: as §1, §2
# [2] = system: human liver cancer-derived cell line HepG2 cells; details: cited from earlier work
# in vitro = details: human
# Description: as §1, §2
# [3] = system: xenobiotic responsive element (XRE); assay: Screening: inhibition of FICZ-triggered reporter protein expression in XRE-NLuc::HaCaT cells; format: cell-based, human; details: FICZ 5,000 nM, 24 hours
# Description: First, in the same manner as in Experiment 1-2, XRE-NLuc::HaCaT cells were suspended in a DMEM medium at the density of 1×10^5 cell/mL, and 100 μL of the thus obtained suspension was added to each well of white 96-well plates (Thermo Fisher Scientific, MA, U.S.A.; Catalogue No.: 136102) so that a number of the cells in each well was 10,000 cells/well. In accordance with the conventional method, the cells were incubated for 24 hours at 37° C. and 5% CO2. Thereafter, the DMEM medium was removed, and 100 μL of a new DMEM medium containing […] of FICZ, which was confirmed to activate the expression of the reporter protein in Experiment 1-2, and a candidate substance at a predetermined concentration. Meanwhile, reference samples were also prepared by adding 100 μL of a DMEM medium containing 5,000 nM of FICZ but not containing candidate substances. In this experiment, 5-hydroxy-4-phenyl-2(5H)butenolide (hereinafter also referred to as “Fraglide-1” or “FG1”) and, as a positive control, cinnamaldehyde, which is known to have an effect of inhibiting a foreign body reaction in which a xenobiotic responsive element (XRE) is involved, were used as test substances. After incubation for 24 hours at 37° C. and 5% CO2, the expression level of the reporter protein (luminescence intensity) and the viable cell count were measured in accordance with the method described in Experiment 1-2, and the expression of the reporter protein per unit number of viable cells was obtained. The inhibition rate (Inhibition (%)) of the expression of the reporter protein exerted by each candidate substance was calculated in accordance with the following formula.
# In the above formula, (Reporter Expression)FICZ indicates the expression of the reporter protein per unit number of viable cells obtained from the reference samples: i.e., the cells incubated in the medium containing 5,000 nM of FICZ but not containing candidate substances. Meanwhile, (Reporter Expression)FICZ+TEST SAMPLE indicates the expression of the reporter protein per unit number of viable cells obtained from the cells incubated in the medium containing 5,000 nM of FICZ and a candidate substance. The results shown in FIG. 6 were the mean obtained from three independent experiments. The error bars represent the standard error (SE).
# [4] = system: matrix metalloprotease 2 (MMP2) mRNA; assay: MMP2 mRNA expression in HaCaT cells contacted with test substance, quantitative PCR; format: cell-based, human; details: retinoic acid or nicotinamide at predetermined concentrations, 24 hours
# Description: In this experiment, the effect of Fraglide-1 on the expression of MMP9 in the level of mRNA was examined first. Specifically, HaCaT cells were treated with Fraglide-1 in the same manner as described in Experiment 3-1 except that HaCaT cells were incubated for 24 hours in the medium containing 0 μM, 1 μM, 10 μM, and 100 μM of Fraglide-1 instead of being incubated for 24 hours in the medium containing both FICZ and Fraglide-1. The total RNA was then extracted, cDNA was prepared, and the quantitative PCR was performed using the obtained cDNA. Herein, the procedure of the quantitative PCR was the same as described in Experiment 3-1 except that the primers shown in below Table 4 were used. In this experiment, the expression of MMP2 mRNA was also quantified in addition to MMP9 mRNA. MMP2 is known as a MMP which is not transcriptionally regulated by a xenobiotic responsive element (XRE). […]
# Next, experiments were performed to inhibit MMP9 and MMP2 in HaCaT cells using retinoic acid (CAS RN: 302-79-4) and nicotinamide (CAS RN: 98-92-0), which are known to be substances having anti-wrinkle effect. […] Then, the total RNA was extracted, cDNA was prepared, and the quantitative PCR was carried out using the obtained cDNA. […]
# [5] = system: TIMP-1 (Tissue Inhibitor of Matrix Metalloprotease-1) mRNA; assay: TIMP-1 mRNA expression in HaCaT cells, quantitative PCR; format: cell-based, human; details: Fraglide-1 1 μM, 10 μM, 100 μM; retinoic acid / nicotinic acid amide at predetermined concentrations; 24 hours
# Description: Specifically, the mRNA expression of TIMP-1 in the HaCaT cells treated with Fraglide-1 was evaluated by performing quantitative PCR using cDNA obtained in Experiment 4-1. The procedure of quantitative PCR was the same as described in Experiment 4-1 except that the primers shown in below Table 5 were used.
# (§3) In FIG. 14, the results obtained for each sample were shown in relative values normalized by setting the expression level of TIMP-1 in the HaCaT cells incubated for 24 hours in DMEM medium not containing Fraglide-1 (i.e., the non-treated HaCaT cells) as 1. The results shown in FIG. 14 are the mean of values obtained from three independent experiments, and the error bars represent standard deviation (SD).
# On the other hand, as comparison, the similar evaluation was performed for retinoic acid and nicotinamide, which are known as active ingredients of anti-wrinkle agents, using cDNA obtained in Experiment 4-2. The procedure for quantitative PCR was the same as already described in Experiment 3-1, except that the primers shown in Table 5 were used.
# as §3, with “15,” for “14,”, “either retinoic acid and nicotinic acid amide” for “Fraglide-1”, “15” for “14”
# [6] = system: matrix metalloprotease 9 (MMP9) mRNA; assay: MMP9 mRNA expression in HaCaT cells contacted with test substance, quantitative PCR; format: cell-based, human; details: retinoic acid or nicotinamide at predetermined concentrations, 24 hours
# Description: In this experiment, the effect of Fraglide-1 on the expression of MMP9 in the level of mRNA was examined first. Specifically, HaCaT cells were treated with Fraglide-1 in the same manner as described in Experiment 3-1 except that HaCaT cells were incubated for 24 hours in the medium containing 0 μM, 1 μM, 10 μM, and 100 μM of Fraglide-1 instead of being incubated for 24 hours in the medium containing both FICZ and Fraglide-1. The total RNA was then extracted, cDNA was prepared, and the quantitative PCR was performed using the obtained cDNA. Herein, the procedure of the quantitative PCR was the same as described in Experiment 3-1 except that the primers shown in below Table 4 were used. In this experiment, the expression of MMP2 mRNA was also quantified in addition to MMP9 mRNA. MMP2 is known as a MMP which is not transcriptionally regulated by a xenobiotic responsive element (XRE).
# (§4) In FIG. 9 and FIG. 10, the results obtained for each sample were shown as a relative value, with the mRNA expression level of MMP9 or MMP2 in the HaCaT cells incubated for 24 hours in DMEM medium without FICZ (i.e., the non-treated HaCaT cells) set to 1. The results shown in FIG. 9 and FIG. 10 were the mean obtained from three independent experiments. The error bars represent the standard deviation (SD).
# Next, experiments were performed to inhibit MMP9 and MMP2 in HaCaT cells using retinoic acid (CAS RN: 302-79-4) and nicotinamide (CAS RN: 98-92-0), which are known to be substances having anti-wrinkle effect. Briefly, HaCaT cells were made in contact with retinoic acid and nicotinamide in the same manner as in Experiment 4-1 except that retinoic acid and nicotinamide were used instead of Fraglide-1. Then, the total RNA was extracted, cDNA was prepared, and the quantitative PCR was carried out using the obtained cDNA.
# as §4, with “FIG. 12” for “FIG. 9”, “FIG. 13,” for “FIG. 10,”, “medium containing neither retinoic acid nor nicotinamide” for “medium without FICZ”, “FIG. 13” for “FIG. 10”
smiles,measurement,setting,value
"OCc1c[nH]c2ccccc12 [I3C, indole-3-carbinol]",EC50,[1],11 µM
same,Present Experiment Maximum Effective concentration Max. Induction,[1],350 µM
same,CC50,XRE-NLuc::HaCaT cells,> 700 µM
"COC(=O)c1csc(C(=O)c2c[nH]c3ccccc23)n1 [ITE, 2-(1′H-indole-3′-carbonyl)-thiazole-4-carboxylic acid methyl ester]",Literature Value Maximum Effective concentration Max. Induction,[2],10** μM
same,EC50,[1],1.3 µM
same,Present Experiment Maximum Effective concentration Max. Induction,[1],25 µM
same,CC50,XRE-NLuc::HaCaT cells,> 100 µM
"O=C1Nc2ccccc2/C1=C1/Nc2ccccc2C1=O [Indirubin, indirubin]",EC50,[1]; Homo sapiens,0.006 µM
same,Present Experiment Maximum Effective concentration Max. Induction,[1],0.25 µM
same,CC50 at 24 h,in vitro,> 40 µM
O=CC=Cc1ccccc1 [cinnamaldehyde],Inhibition (%) of expression of the reporter protein triggered by FICZ,[3]; 12.5 μM test substance,8%
same,Inhibition (%) of expression of the reporter protein triggered by FICZ,[3]; 25 μM test substance,14%
same,Inhibition (%) of expression of the reporter protein triggered by FICZ,[3]; 50 μM test substance,16%
NC(=O)c1cccnc1 [nicotinamide],expression of MMP2 mRNA vs non-treated HaCaT cells,[4],decreased
same,expression level of TIMP-1 mRNA vs non-treated HaCaT cells (in words),[5],increase of the expression level of TIMP-1 was not observed
same,expression of MMP9 mRNA vs non-treated HaCaT cells,[6],decreased expression of MMP9 was also observed
